Columns and labels:
carboxylesterase (CE) = assay: Carboxylesterase (CE) activity in rat liver microsomes (LVms), p-nitrophenyl acetate; assay type: biochemical; conditions: 10 uM compound, read 10 min after substrate, remaining CE activity
Procedure: (§1) FAAH inhibition was determined as described above. Inhibition of monoacylglycerol lipase (MAGL) and carboxylesterase (CE) was performed according to the protocols described below. The controls for both in vitro and in vivo were the reaction mix minus the test compounds. Therefore, a low value in Table 2 below for the test compounds indicates a strong inhibitor.
CE activity measurement is based on the formation of p-nitrophenol from p-nitrophenyl acetate. Briefly, in 96-well plates 8 μg/ml of rat or mouse liver microsomes (LVms) were incubated with 10 μM FAAH inhibitors for 15 min and then the substrate, p-nitrophenyl acetate, was added to a final concentration of 1 mM. The plate was read at 405 nm 10 min after substrate addition for the appearance of p-nitrophenol using a spectrophotometer. The carboxylesterase activity in microsome extracts without inhibitor added were set at 100% as control and the remaining CE activities after incubation with inhibitors were calculated relative to the control.

[1] = biological target: T1, monoacylglycerol lipase (MAGL) (Rattus norvegicus, UniProt Q8R431); assay: MAGL activity in rat cerebella cytosol (CRBcyt), hydrolysis of [3H] 2-OG; assay type: biochemical, WISTAR rats; conditions: 12.5 uM compound, remaining MAGL activity
T1 construct: cerebella cytosol (CRBcyt) fractions, previously obtained from adult WISTAR rats; from tissue; host or cells: adult Wistar rat cerebella, cytosol fraction
T1 sequence (Q8R431 1-303): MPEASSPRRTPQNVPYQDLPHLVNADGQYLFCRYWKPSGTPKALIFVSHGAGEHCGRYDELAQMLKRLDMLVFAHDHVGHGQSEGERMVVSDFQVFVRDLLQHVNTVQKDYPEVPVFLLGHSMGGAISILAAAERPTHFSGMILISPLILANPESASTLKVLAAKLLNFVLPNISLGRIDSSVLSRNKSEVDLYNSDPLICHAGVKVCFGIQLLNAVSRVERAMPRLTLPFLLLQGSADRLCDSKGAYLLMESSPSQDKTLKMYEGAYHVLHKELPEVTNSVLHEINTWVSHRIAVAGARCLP
Procedure: as §1
MAGL activity measurement was based on rate of hydrolysis of [^3H] 2-OG (glycerol labeled) as substrate. Briefly, cerebella cytosol (CRBcyt) fractions, previously obtained from adult WISTAR rats, were diluted to appropriate assay protein concentrations in Tris-HCl buffer (10 mM, pH 7.2) containing 1 mM EDTA, and were added to assay tubes containing test compound. Blanks contained assay buffer instead of cytosol samples were used as control. […] The final assay contained 0.125% w v^−1 fatty acid-free BSA. After the incubation phase, reactions were stopped by adding 400 μL chloroform:methanol (1/1 v v^−1), vortex mixing the tubes two times and placing them on ice. Phases were separated by centrifugation and 200 μL aliquots of the methanol/buffer phase were taken and tritium content assayed by liquid scintillation spectroscopy with quench correction.

FAAH = biological target: T2, FAAH (Rattus norvegicus, UniProt P97612); assay: In vitro FAAH activity in rat brain membranes, 3H-AEA substrate, % of control; assay type: biochemical, Wistar rats; conditions: low value = strong inhibitor
T2 construct: Frozen brains (without cerebellum) from Wistar rats were used; from tissue; host or cells: Wistar rat brain (without cerebellum), washed membrane pellets
T2 sequence (P97612 1-579): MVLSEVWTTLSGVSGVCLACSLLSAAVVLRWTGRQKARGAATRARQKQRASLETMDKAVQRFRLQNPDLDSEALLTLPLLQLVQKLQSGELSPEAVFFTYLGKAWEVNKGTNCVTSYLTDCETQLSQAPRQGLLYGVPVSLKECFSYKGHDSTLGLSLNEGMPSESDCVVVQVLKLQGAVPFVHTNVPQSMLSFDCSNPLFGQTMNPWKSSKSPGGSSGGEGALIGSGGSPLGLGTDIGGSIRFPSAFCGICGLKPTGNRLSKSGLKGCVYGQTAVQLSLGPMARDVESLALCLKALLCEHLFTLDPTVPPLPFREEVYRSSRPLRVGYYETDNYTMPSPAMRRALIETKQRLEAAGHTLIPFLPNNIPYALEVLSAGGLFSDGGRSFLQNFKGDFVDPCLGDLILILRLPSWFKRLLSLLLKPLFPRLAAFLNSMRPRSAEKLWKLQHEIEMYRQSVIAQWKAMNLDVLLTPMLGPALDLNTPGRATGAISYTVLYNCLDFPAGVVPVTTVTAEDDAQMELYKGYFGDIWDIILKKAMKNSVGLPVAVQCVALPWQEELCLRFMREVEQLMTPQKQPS
Procedure, shortened: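 FAAH activity measured as 3H-ethanolamine released from 2 μM [3H]AEA over 10 min by rat brain membrane preparation, after 15 min 37 °C preincubation with test compound at 10 or 0.1 μM. Charcoal-separated supernatant scintillation-counted; values expressed as % of control minus no-protein blank.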

- CE Rat LVms 10 uM 10 min (carboxylesterase (CE)): 94.7 % of control
- MAGL Rat CRBcyto 12.5 uM 8 min [1]: 87 % of control
- FAAH 10 uM (FAAH; 10 uM compound, rat brain membranes, 100 = no measurable inhibition): 16 % of control
- In Vitro FAAH activity, 10 uM (FAAH; 10 uM test compound): 16 % of control
Structure (SMILES): COc1cccc(-c2cn(C(=O)N3CCCc4ccccc43)cn2)c1 [Compound 39, (3,4-dihydroquinolin-1(2H)-yl)(4-(3-methoxyphenyl)-1H-imidazol-1-yl)methanone]

From patent publication US9353082B2, “Pharmaceutical compounds” (BIAL—PORTELA & CA, S.A., priority 2008, dated 2016)
